In PMC12696090, “Enzyme engineering of cytochrome P450 RosC provides mechanistic insights into factors controlling iterative oxidation” (Applied Microbiology and Biotechnology, 2025) one finds X-ray crystal structure and Kd data, which are given here for three molecules.

Test [1] deals with T1, RosC lacking the N-terminal 21 residues (Micromonospora rosaria, UniProt I7HHD0).
T1 construct: N-terminal 21 residues deleted, His-tag cut with thrombin, expressed in E. coli BL21(DE3); crystallization construct
The test is described as follows: X-ray crystal structure. The test is classed as binding. The note with it: 2.3 Å; active site, C-20 oriented toward heme iron.

The target in test [2] is T2, NHis-RosC (Micromonospora rosaria, UniProt I7HHD0).
T2 construct: full-length, N-terminal His-tag kept (pET28b), expressed in E. coli BL21(DE3)
The test is described as follows: spectral substrate-binding assay (difference spectra). The settings on record: 50 mM Tris-HCl pH 7.5, 20% glycerol, room temperature, 1 μM enzyme; Type II spectral change.

The target in test [3] is T3, NHis-RosC (Micromonospora rosaria, UniProt I7HHD0, P107S/L176Q).
T3 construct: full-length, N-terminal His-tag kept (pET28b), expressed in E. coli BL21(DE3)
Described as above. The settings on record: 50 mM Tris-HCl pH 7.5, 20% glycerol, room temperature, 1 μM enzyme; Type II spectral change.

For the molecule `CC[C@H]1OC(=O)C[C@@H](O)[C@H](C)[C@@H](O[C@@H]2O[C@H](C)C[C@H](N(C)C)[C@H]2O)[C@@H](CCO)C[C@@H](C)C(=O)/C=C/[C@]2(C)O[C@H]2[C@@H]1C` [RS-A], in test [1], the X-ray crystal structure result is “crystal structures of the RosC in complex with RS-A and RS”.
By Kd is commonly meant a measure of binding affinity in units of concentration. A high value points to lower affinity. Regarding `CC[C@H]1C[C@@H](C)C(=O)/C=C/[C@]2(C)O[C@H]2[C@H](C)[C@@H](CC)OC(=O)C[C@@H](O)[C@H](C)[C@H]1O[C@@H]1O[C@H](C)C[C@H](N(C)C)[C@H]1O` [RS-B], the X-ray crystal structure result in test [1] was “The crystal structure of RosC bound to RS-B”. Also, the equilibrium dissociation constant (Kd) was determined as 1.4 ± 0.3 µM in test [2] and 1 ± 0.2 µM in test [3].
Take `CC[C@H]1OC(=O)C[C@@H](O)[C@H](C)[C@@H](O[C@@H]2O[C@H](C)C[C@H](N(C)C)[C@H]2O)[C@@H](CC=O)C[C@@H](C)C(=O)/C=C/[C@]2(C)O[C@H]2[C@@H]1C` [RS]: the X-ray crystal structure result in test [1] is “crystal structures of the RosC in complex with RS-A and RS”.
